In patent publication US9012433B2, “Substituted tetracycline compounds” (Paratek Pharmaceuticals, Inc., priority 2006, dated 2015):
Converted amounts (≈) assume the structure as drawn. Like-named read-outs stand apart in the source and are kept apart here.

What was measured:
[1] = system: P. acnes ATCC 11827; assay: Antibacterial MIC, CLSI broth microdilution; type: cell-based; details: Cutibacterium acnes, ATCC11827; 35° C., 18-24 hours
Description: (§1) Grain (−) and gram (+) antibacterial minimum inhibitory concentration (MIC) values (μg/mL) were obtained using CLSI methodology for anti-bacterial susceptibility testing. On each day of testing, serial dilutions of compounds were prepared in microdilution plates using a Tecan robotic workstation. Mueller Hinton broth cultures of representative sensitive and resistant gram negative strains were grown or adjusted to match the turbidity of a 0.5 McFarland standard. 1:200 dilutions were made in an appropriate broth (cation supplemented Mueller Hinton broth) to allow a final inoculum of 1×10^5 cfu. Plates were incubated at 35° C. in ambient air for 18-24 hours, were read spectrophotometrically and checked manually for evidence of bacterial growth. The lowest dilution of compound that inhibited growth was recorded as the MIC. Lysed horse blood was used to supplement broth for testing S. pneumoniae. The MIC's for each compound were assessed against S. aureus, S. pneumoniae, P. acnes, E. coli and B. theta.

[2] = system: S. aureus RN450; assay: Antibacterial MIC, CLSI broth microdilution; type: cell-based; details: Staphylococcus aureus, RN450; 35° C., 18-24 hours
Description: as §1

[3] = system: E. coli ATCC 25922; assay: Antibacterial MIC, CLSI broth microdilution; type: cell-based; details: Escherichia coli, ATCC25922; 35° C., 18-24 hours
Description: as §1

[4] = system: B. thetaiotaomicron ATCC 29741; assay: Antibacterial MIC, CLSI broth microdilution; type: cell-based; details: Bacteroides thetaiotaomicron
Description: as §1

[5] = system: P. acnes ATCC 6919; assay: Antibacterial MIC, CLSI broth microdilution; type: cell-based; details: Cutibacterium acnes, ATCC6919; 35° C., 18-24 hours
Description: as §1

[6] = system: S. pneumoniae 157E - Strep; assay: Antibacterial MIC, CLSI broth microdilution; type: cell-based; details: Streptococcus pneumoniae, 157ESTREP; 35° C., 18-24 hours; lysed horse blood
Description: as §1

[7] = system: E. coli MG 1655; assay: Antibacterial MIC, CLSI broth microdilution; type: cell-based; details: Escherichia coli, MG1655; 35° C., 18-24 hours
Description: as §1

[8] = in vitro; type: cell-based
Description: Mammalian cell cytotoxicity was assessed to evaluate potential in vivo risks associated with the tetracycline compounds of the invention. A soluble, non-toxic redox dye (“Resazurin”; Alamar Blue) was used to assess a tetracycline compound's effect on cellular metabolism. At the onset of the experiment, cultures of mammalian COS-1 or CHO cells were washed, trypsinized, and harvested. […] On the next day, serial dilutions of test drug were prepared under sterile conditions and transferred to cell plates. Plates were then incubated under the above conditions for 24 hours. Following the incubation period, the media/drug was aspirated, and 50 μL of resazurin was added. Plates were then incubated under the above conditions for 2 hours and then in the dark at room temperature for an additional 30 minutes. Fluorescence measurements were taken (excitation 535 nm, emission 590 nm) and toxic effects in treated versus control cells were compared based on the degree of fluorescence in each well.

[9] = system: S. aureus RN450; assay: In vivo anti-bacterial activity, S. aureus model; details: mice, 24 hours; for responders at 5 mg/kg / ED50: Staphylococcus aureus, sc; for responders at 5 mg/kg: read-out: Percent Survival; for ED50: lethal IP S. aureus RN450, subcutaneous, read-out: PD50 (dose that protects 50% of the animals)
Description: Groups of five mice were injected intraperitoneally with a lethal dose of S. aureus RN450 in a medium of mucin. Mice were evaluated at 24 hours to determine survival. […] In some instances, a dose response study was performed with the compound such that a PD50 (a dose of compound that protects 50% of the animals) could be calculated.

[10] = Half-life of oxidation, sodium periodate accelerated oxidation; type: physicochemical
Description: Not to be limited by theory, it is believed that the tissue staining may be caused oxidative instability. The tetracycline compounds were subjected to accelerated oxidation in a continuous-flow microreactor using a 15 molar excess of sodium periodate at pH 11 and 22° C. Aliquots of each reaction mixture were quenched at various time points with ascorbic acid and the disappearance of each compound was determined by RP-HPLC. Pseudo first-order rate constants and t1/2 values were obtained from the plots of log (Ao-At/Ao) versus time, where Ao is the HPLC area determined for each compound at time=0 and At is the HPLC area at time=t.

[11] = ATCC29741, 35° C., 18-24 hours, read-out: MIC B. thetaiotaomicron ATCC 29741
[12] = lethal IP S. aureus RN450, single subcutaneous dose 5 mg/kg
[13] = ATCC29741, read-out: MIC B. thetaiotaomicron ATCC 29741

SMILES | MIC [1] | MIC [2] | MIC [3] | MIC [4, 11] | MIC [5] | MIC [6] | MIC [7] | IC50 at 24 h ([8]; African green monkey) | IC50 at 24 h ([8]; Chinese hamster) | responders at 5 mg/kg [9, 12] | ED50 [9] | MIC [4, 13] | Percent Survival ([9]; lethal IP S. aureus RN450, single subcutaneous dose 5 mg/kg, 5 mg/kg) | half-life ([10]; buffer, pH 11) | half-life ([10]; 15 molar excess of sodium periodate, pH 11, 22° C., read-out: half-life for oxidation (converted))
CN(C)c1cccc2c1C[C@H]1C[C@H]3[C@H](N(C)C)C(O)=C(C(N)=O)C(=O)[C@@]3(O)C(O)=C1C2=O [C] | < 4 µg/mL | < 4 µg/mL | > 8 µg/mL | > 8 µg/mL | < 4 µg/mL | < 4 µg/mL | > 8 µg/mL | > 75 µg/mL | > 75 µg/mL | 100% |  |  |  |  | 
CN(C)[C@@H]1C(O)=C(C(N)=O)C(=O)[C@@]2(O)C(O)=C3C(=O)c4c(O)ccc(CNOCC(F)F)c4C[C@H]3C[C@@H]12 [DX] | < 4 µg/mL | < 4 µg/mL | 4 to 8 µg/mL (≈ 7.64 to 15.3 µM) | < 4 µg/mL | < 4 µg/mL | < 4 µg/mL | 4 to 8 µg/mL (≈ 7.64 to 15.3 µM) | < 35 µg/mL | 35 to 75 µg/mL (≈ 66.9 to 143 µM) |  | 0.58 mg/kg |  |  |  | 
CC(C)ONCc1ccc(O)c2c1C[C@H]1C[C@H]3[C@H](N(C)C)C(O)=C(C(N)=O)C(=O)[C@@]3(O)C(O)=C1C2=O [DV, (4S,4aS,5aR,12aS-4-Dimethylamino-3,10,12,12a-tetrahydroxy-7-isopropoxyamino-methyl)-1,11-dioxo-1,4,4a,5,5a,6,11,12a-octahydro-naphthacene-2-carboxylic acid amide] | < 4 µg/mL | < 4 µg/mL | 4 to 8 µg/mL (≈ 7.98 to 16 µM) | 4 to 8 µg/mL (≈ 7.98 to 16 µM) | < 4 µg/mL | < 4 µg/mL | > 8 µg/mL | < 35 µg/mL | < 35 µg/mL |  | 1.1 mg/kg |  |  |  | 
C[C@H]1c2cccc(O)c2C(=O)C2=C(O)[C@]3(O)C(=O)C(C(N)=O)=C(O)[C@@H](N(C)C)[C@@H]3[C@@H](O)[C@@H]21 [Doxycycline, reference compound] | < 4 µg/mL | < 4 µg/mL | < 4 µg/mL |  | < 4 µg/mL | < 4 µg/mL | < 4 µg/mL | > 75 µg/mL | > 75 µg/mL | 100% | 0.13 mg/kg | 4 to 8 µg/mL (≈ 9 to 18 µM) | 100 (5/5) Percent |  | 
C/C(=N\OC(C)(C)C)c1cc(N)c(O)c2c1C[C@H]1C[C@H]3[C@H](N(C)C)C(O)=C(C(N)=O)C(=O)[C@@]3(O)C(O)=C1C2=O [Q, (4S,4aS,5aR,12aS)-9-Amino-7-(1-tert-butoxyimino-ethyl)-4-dimethylamino-3,10,12,12a-tetrahydroxy-1,11-dioxo-1,4,4a,5,5a,6,11,12a-octahydro-naphthacene-2-carboxylic acid amide] | < 4 µg/mL | < 4 µg/mL | 4 to 8 µg/mL (≈ 7.37 to 14.7 µM) | 4 to 8 µg/mL (≈ 7.37 to 14.7 µM) | < 4 µg/mL | < 4 µg/mL | 4 to 8 µg/mL (≈ 7.37 to 14.7 µM) | < 35 µg/mL | < 35 µg/mL | 100% | 0.45 mg/kg |  |  |  | 
CCONCc1ccc(O)c2c1C[C@H]1C[C@H]3[C@H](N(C)C)C(O)=C(C(N)=O)C(=O)[C@@]3(O)C(O)=C1C2=O [AA, (4S,4aS,5aR,12aS)-4-Dimethylamino-7-(ethoxyamino-methyl)-3,10,12,12a-tetrahydroxy-1,11-dioxo-1,4,4a,5,5a,6,11,12a-octahydro-naphthacene-2-carboxylic acid amide] | < 4 µg/mL | < 4 µg/mL | 4 to 8 µg/mL (≈ 8.2 to 16.4 µM) | 4 to 8 µg/mL (≈ 8.2 to 16.4 µM) | < 4 µg/mL | < 4 µg/mL | 4 to 8 µg/mL (≈ 8.2 to 16.4 µM) | > 75 µg/mL | > 75 µg/mL | 100% |  |  |  |  | 
CN(C)c1ccc(O)c2c1C[C@H]1C[C@H]3[C@H](N(C)C)C(O)=C(C(N)=O)C(=O)[C@@]3(O)C(O)=C1C2=O [Minocycline, reference compound] | < 4 µg/mL | < 4 µg/mL | < 4 µg/mL |  | < 4 µg/mL | < 4 µg/mL | < 4 µg/mL | > 75 µg/mL | > 75 µg/mL |  |  | 4 to 8 µg/mL (≈ 8.74 to 17.5 µM) |  | 0.137 min | 
CO/N=C/c1cc(N(C)C)c2c(c1O)C(=O)C1=C(O)[C@]3(O)C(=O)C(C(N)=O)=C(O)[C@@H](N(C)C)[C@@H]3C[C@@H]1C2 [V, (4S,4aS,5aR,12aS)-4,7-Bis-dimethylamino-3,10,12,12a-tetrahydroxy-9-(methoxyimino-methyl)-1,11-dioxo-1,4,4a,5,5a,6,11,12a-octahydro-naphthacene-2-carboxylic acid amide] | < 4 µg/mL | < 4 µg/mL | > 8 µg/mL | 4 to 8 µg/mL (≈ 7.77 to 15.5 µM) | < 4 µg/mL | < 4 µg/mL | > 8 µg/mL | < 35 µg/mL | < 35 µg/mL |  | 1.4 mg/kg |  |  |  | 
CON(C)Cc1ccc(O)c2c1C[C@H]1C[C@H]3[C@H](N(C)C)C(O)=C(C(N)=O)C(=O)[C@@]3(O)C(O)=C1C2=O [P] | < 4 µg/mL | < 4 µg/mL | 4 to 8 µg/mL (≈ 8.2 to 16.4 µM) |  | < 4 µg/mL | < 4 µg/mL | 4 to 8 µg/mL (≈ 8.2 to 16.4 µM) | > 75 µg/mL | > 75 µg/mL | 100% | 0.13 mg/kg | 4 to 8 µg/mL (≈ 8.2 to 16.4 µM) |  |  | 
CNc1c(-c2ccc(O)c3c2C[C@H]2C[C@H]4[C@H](N(C)C)C(O)=C(C(N)=O)C(=O)[C@@]4(O)C(O)=C2C3=O)c(=O)c1=O [AD, (4S,4aS,5aR,12aS)-4-Dimethylamino-3,10,12,12a-tetrahydroxy-7-(2-methylamino-3,4-dioxo-cyclobut-1-enyl)-1,11-dioxo-1,4,4a,5,5a,6,11,12a-octahydro-naphthacene-2-carboxylic acid amide] | < 4 µg/mL | < 4 µg/mL | 4 to 8 µg/mL (≈ 7.64 to 15.3 µM) | > 8 µg/mL | < 4 µg/mL | < 4 µg/mL | 4 to 8 µg/mL (≈ 7.64 to 15.3 µM) | < 35 µg/mL | < 35 µg/mL |  | 4.54 mg/kg |  |  |  | 
CN(C)c1cc(C#N)c(O)c2c1C[C@H]1C[C@H]3[C@H](N(C)C)C(O)=C(C(N)=O)C(=O)[C@@]3(O)C(O)=C1C2=O [B] | < 4 µg/mL | < 4 µg/mL | > 8 µg/mL | 4 to 8 µg/mL (≈ 8.29 to 16.6 µM) | < 4 µg/mL | < 4 µg/mL | > 8 µg/mL | < 35 µg/mL | < 35 µg/mL |  |  |  |  |  | 8.25 min
CN(C)[C@@H]1C(O)=C(C(N)=O)C(=O)[C@@]2(O)C(O)=C3C(=O)c4c(O)ccc(CNOCCF)c4C[C@H]3C[C@@H]12 [DW, (4S,4aS,5aR,12aS)-4-Dimethylamino-7-[(2-fluoro-ethoxyamino)-methyl]-3,10,12,12a-tetrahydroxy-1,11-dioxo-1,4,4a,5,5a,6,11,12a-octahydro-naphthacene-2-carboxylic acid amide] | < 4 µg/mL | < 4 µg/mL | < 4 µg/mL | 4 to 8 µg/mL (≈ 7.91 to 15.8 µM) | < 4 µg/mL | < 4 µg/mL | > 8 µg/mL | > 75 µg/mL | > 75 µg/mL |  | 0.48 mg/kg |  |  |  | 
